Laboratory results taken from ChEMBL document CHEMBL1152153, “Synthesis and activity of novel 1- or 3-(3-amino-1-phenyl propyl)-1,3-dihydro-2H-benzimidazol-2-ones as selective norepinephrine reuptake inhibitors” (Bioorg Med Chem Lett, 2008).
pIC50: −log10 of the molar value.

How the values were obtained:
[1] = molecular target: T1, Sodium-dependent noradrenaline transporter (Homo sapiens, UniProt P23975); assay: Inhibition of norepinephrine uptake at human NET expressed in MDCK-Net6 cells at 1 uM; assay type: cell-based
[2] = molecular target: T2, Sodium-dependent serotonin transporter (Homo sapiens, UniProt P31645); assay: Inhibition of serotonin uptake at human SERT expressed in JAR cells at 1 uM; assay type: cell-based
Target sequence in this assay (P31645 whole entry, looked up): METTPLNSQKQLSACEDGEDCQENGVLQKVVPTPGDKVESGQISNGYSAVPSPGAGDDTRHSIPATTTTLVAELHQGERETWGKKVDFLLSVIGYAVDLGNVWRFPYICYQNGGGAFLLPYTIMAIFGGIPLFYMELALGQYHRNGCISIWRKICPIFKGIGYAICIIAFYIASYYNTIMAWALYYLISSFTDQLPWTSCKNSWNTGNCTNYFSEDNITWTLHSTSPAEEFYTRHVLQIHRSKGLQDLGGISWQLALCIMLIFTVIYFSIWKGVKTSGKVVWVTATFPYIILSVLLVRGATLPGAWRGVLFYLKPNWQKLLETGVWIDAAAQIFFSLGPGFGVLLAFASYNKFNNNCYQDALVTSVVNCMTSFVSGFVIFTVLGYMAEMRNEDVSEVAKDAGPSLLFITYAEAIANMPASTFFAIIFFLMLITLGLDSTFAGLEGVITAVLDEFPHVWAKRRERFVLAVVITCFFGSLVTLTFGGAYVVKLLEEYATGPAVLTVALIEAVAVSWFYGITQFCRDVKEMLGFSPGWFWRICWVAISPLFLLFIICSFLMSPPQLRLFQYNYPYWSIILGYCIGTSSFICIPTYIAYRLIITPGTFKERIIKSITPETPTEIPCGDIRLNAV

[3] = molecular target: Sodium-dependent dopamine transporter (Homo sapiens) (UniProt Q01959); assay: Displacement of [3H]WIN-35428 from human recombinant DAT expressed in CHO cells at 10 uM; assay type: cell-based
[4] = molecular target: T1, Sodium-dependent noradrenaline transporter
Homo sapiens = species on record: Homo sapiens; assay: Ratio of IC50 for human SERT to IC50 for human NET
[5] = molecular target: T2, Sodium-dependent serotonin transporter; assay type: cell-based, JAR
Target sequence in this assay (P31645 whole entry): as the sequence (P31645 whole entry, looked up) above

[6] = molecular target: T2, Sodium-dependent serotonin transporter; assay: Inhibition of serotonin uptake at human SERT expressed in JAR cells at 10 uM; assay type: cell-based
Target sequence in this assay (P31645 whole entry, looked up): as above

T1 sequence (P23975 whole entry): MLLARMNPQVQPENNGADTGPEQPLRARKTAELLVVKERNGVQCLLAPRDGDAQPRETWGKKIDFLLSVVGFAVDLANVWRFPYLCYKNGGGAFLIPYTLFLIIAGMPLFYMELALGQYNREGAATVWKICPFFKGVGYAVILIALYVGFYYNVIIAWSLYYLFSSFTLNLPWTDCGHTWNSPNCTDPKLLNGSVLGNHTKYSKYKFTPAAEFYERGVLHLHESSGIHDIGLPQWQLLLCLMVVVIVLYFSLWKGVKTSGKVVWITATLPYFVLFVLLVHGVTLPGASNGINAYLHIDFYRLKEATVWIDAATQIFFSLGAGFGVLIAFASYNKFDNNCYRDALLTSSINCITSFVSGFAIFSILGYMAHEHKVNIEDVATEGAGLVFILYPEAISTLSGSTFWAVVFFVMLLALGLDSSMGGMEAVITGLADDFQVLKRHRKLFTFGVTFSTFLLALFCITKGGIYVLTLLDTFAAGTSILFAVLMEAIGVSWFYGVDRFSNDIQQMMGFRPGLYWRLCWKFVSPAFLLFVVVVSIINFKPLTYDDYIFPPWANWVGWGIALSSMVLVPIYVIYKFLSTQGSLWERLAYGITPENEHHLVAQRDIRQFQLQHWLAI
Sodium-dependent dopamine transporter (Homo sapiens), sequence (Q01959 whole entry): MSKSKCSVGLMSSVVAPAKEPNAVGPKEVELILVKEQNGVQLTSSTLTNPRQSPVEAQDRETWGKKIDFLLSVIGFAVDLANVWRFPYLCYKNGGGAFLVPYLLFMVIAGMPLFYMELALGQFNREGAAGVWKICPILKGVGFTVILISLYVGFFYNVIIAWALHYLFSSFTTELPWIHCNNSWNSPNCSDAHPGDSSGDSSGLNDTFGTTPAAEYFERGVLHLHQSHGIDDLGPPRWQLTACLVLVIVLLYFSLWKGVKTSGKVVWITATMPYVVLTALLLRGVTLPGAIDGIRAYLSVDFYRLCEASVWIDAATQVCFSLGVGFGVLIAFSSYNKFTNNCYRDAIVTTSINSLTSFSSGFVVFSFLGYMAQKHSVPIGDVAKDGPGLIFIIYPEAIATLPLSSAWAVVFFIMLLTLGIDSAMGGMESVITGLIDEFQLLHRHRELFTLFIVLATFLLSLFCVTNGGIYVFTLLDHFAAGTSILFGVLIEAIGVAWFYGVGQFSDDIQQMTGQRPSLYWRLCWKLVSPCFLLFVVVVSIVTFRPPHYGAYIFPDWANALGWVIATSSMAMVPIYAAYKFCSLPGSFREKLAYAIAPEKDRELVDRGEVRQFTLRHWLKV

Row | SMILES | inhibition [1] [%] | inhibition [2] [%] | inhibition [3] [%] | pIC50 [4] | Ratio IC50 (Homo sapiens) | pIC50 [5] | inhibition [6] [%]
1 | CNCC[C@@H](c1ccccc1)n1c(=O)n(C2CC2)c2ccccc21 | 25 | – | – | – | – | – | –
2 | CNCC[C@@H](c1ccccc1)n1c(=O)n(C(C)C)c2cccc(F)c21 | – | – | 31 | 5.98 | – | 5.85 | –
3 | CCn1c(=O)n([C@H](CCN)c2ccccc2)c2ccccc21 | 51 | – | – | – | – | – | –
4 | CNCC[C@H](c1ccccc1)n1c(=O)n(C)c2ccccc21 | – | 10 | 12 | 6.33 | – | – | –
5 | CNCCC(c1ccccc1)n1ccc2ccccc21 (centres undefined) | – | – | – | – | 7 | – | –
6 | CCn1c(=O)n([C@H](CCNC)c2cccc(F)c2)c2c(F)cccc21 | – | 28 | 14 | 7.72 | – | – | –
7 | CNCC[C@H](c1ccccc1)n1c(=O)n(C(C)C)c2ccccc21 | – | 2 | 11 | 7.66 | 450 | – | 53
8 | CCn1c(=O)n([C@H](CCNC)c2ccccc2)c2ccccc21 | – | – | 4 | 7.36 | 98 | 5.37 | –
9 | CNCC[C@H](c1ccccc1)n1c(=O)n(C(C)C)c2cccc(F)c21 | – | – | 5 | 7.52 | 40 | 5.92 | –

More lines, now with the values ahead:

Row | inhibition [1] [%] | inhibition [2] [%] | inhibition [3] [%] | pIC50 [4] | Ratio IC50 (Homo sapiens) | pIC50 [5] | inhibition [6] [%] | SMILES
10 | 27 | – | – | – | – | – | – | CCNCC[C@H](c1ccccc1)n1c(=O)n(CC)c2ccccc21
11 | – | 20 | 24 | 6.51 | – | – | – | CNCC[C@H](c1ccccc1)n1c(=O)n(C2CCCCC2)c2ccccc21
12 | – | – | 3 | 7.49 | 97 | 5.51 | – | CCCn1c(=O)n([C@H](CCNC)c2ccccc2)c2ccccc21
13 | – | – | – | 8.22 | 80 | 6.32 | – | CNCC[C@H](c1ccccc1)n1c(=O)n(-c2ccccc2F)c2cccc(F)c21
14 | 27 | – | – | – | – | – | – | CC(C)n1c(=O)n([C@H](CCN(C)C)c2ccccc2)c2c(F)cccc21
15 | – | – | 33 | 8.05 | 333 | 5.52 | – | CNCC[C@H](c1ccccc1)n1c(=O)n(-c2ccccc2)c2ccccc21
16 | – | – | 7 | 6.78 | 28 | 5.34 | – | CNCC[C@H](c1ccccc1)n1c(=O)n(C2CC2)c2ccccc21
17 | 21 | – | – | – | – | – | – | CNCC[C@@H](c1ccccc1)n1c(=O)n(C(C)C)c2ccccc21
18 | – | – | 36 | 6.92 | 16 | 5.72 | – | CNCC[C@H](c1ccccc1)n1c(=O)sc2ccccc21
19 | – | – | 23 | 6.67 | – | 6.56 | – | CNCC[C@@H](c1ccccc1)n1c(=O)n(-c2ccccc2)c2ccccc21
20 | – | – | 5 | 6.20 | – | 6.78 | – | CCCn1c(=O)n([C@@H](CCNC)c2ccccc2)c2ccccc21
21 | – | 16 | 22 | 6.70 | – | – | – | CNCC[C@H](c1ccccc1)n1c(=O)n(C2CCCC2)c2ccccc21
